Patent US11534457B2, “Use of dextran sulfate” (priority 2017, dated 2022)

How the values were obtained:
[1] = tested on: trabecular meshwork (TM) scarring in glaucomatous eyes; assay: TGF-β induced glaucoma in rats, trabecular meshwork scarring (laminin, fibronectin immunohistochemistry); assay type: in vivo, Sprague Dawley rats
Procedure: Glaucoma was induced in adult male Sprague Dawley rats by repeat twice weekly intracameral (IC) injections of transforming growth factor-β (TGF-β) to increase intraocular pressure (IOP). Sustained increases in IOP (after two weeks) leads to death of retinal ganglion cells (30-40%). LMW-DS was administered at 15 mg/kg by daily subcutaneous injection […] to assess RGC protection compared to controls.
Group 1 n=12 rats; 24 eyes […] TGF-β (twice weekly for 28 days) between day 0 and day 28+ daily subcutaneous administration of dextran sulfate from day 14 to day 28.
Group 2 n=8 rats; 16 eyes IOP+IC TGF-β (twice weekly for 28 days) between day 0 and day 28+ daily subcutaneous administration of vehicle (saline) from day 14 to day 28.
Measured End-Points • IOP twice weekly throughout study from day 0 to day 28; • Immunohistochemistry for counting retinal ganglion cell (RGC) that are immunoreactive for brain-specific homeobox/POU domain protein 3A (Brn3a) at day 28 (RGC survival); • Immunohistochemistry for laminin and fibronectin to evaluate scarring in the trabecular meshwork at day 28 in Groups 1 and 2; • Anterior segment and optical coherence tomography (OCT) imaging at day 28 to examine the angle and the thickness of the retinal nerve fiber layer comprising RGC axons; and • Body weight at day 28. […]

[2] = tested on: closed-head diffuse severe TBI (sTBI); assay: sTBI in rats, dose study, HPLC of free amino acids and amino group containing compounds (Example 7); assay type: in vivo, Male Wistar rats
[3] = 1 mg/kg s.c. single, 30 min post-sTBI, sacrifice 2 days
[4] = 5 mg/kg s.c. single, 30 min post-sTBI, sacrifice 2 days
[5] = 15 mg/kg s.c. single, 30 min post-sTBI, sacrifice 2 days
[6] = rats, 7 days post-sTBI, repeated administration of 15 mg/kg b.w.
[7] = rats, 7 days post-sTBI, single administration of 1 mg/kg b.w.
[8] = rats, 7 days post-sTBI, single administration of 5 mg/kg b.w.
[9] = rats, 7 days post-sTBI, single administration of 15 mg/kg b.w.

How did the “immunoreactive laminin in the angle (TM scarring) vs saline” value ([1]; 15 mg/kg daily s.c. day 14 to day 28, P<0.001) turn out when “low molecular weight dextran sulfate [LMW-DS]” was run?
The value was “significantly reduced”.

What about the “immunoreactive fibronectin in the angle (TM scarring) vs saline” value ([1]; 15 mg/kg daily s.c. day 14 to day 28, P<0.01) of the same substance?
The value was “significantly reduced”.

What about the “GLN, brain concentration” value [2, 3] of the same substance?
The value was 4.37 ± 0.59 nmol/g w.w.

And the “LYS, brain concentration” value [2, 3]?
Its value is 0.29 ± 0.11 nmol/g w.w.

What about the “ORN, brain concentration” value [2, 3] of the same substance?
Its value is 0.02 ± 0.01 nmol/g w.w.

And the “THR, brain concentration” value [2, 3]?
The value was 0.70 ± 0.15 nmol/g w.w.

What about the “VAL, brain concentration” value [2, 3] of the same substance?
Its value is 0.07 ± 0.03 nmol/g w.w.

And the “ORN, brain concentration” value [2, 4]?
Its value is 0.01 ± 0.01 nmol/g w.w.

What about the “THR, brain concentration” value [2, 4] of the same substance?
The value was 0.77 ± 0.17 nmol/g w.w.

And the “VAL, brain concentration” value [2, 4]?
Its value is 0.08 ± 0.03 nmol/g w.w.

And the “GLN, brain concentration” value [2, 5]?
The value was 4.21 ± 0.51 nmol/g w.w.

What about the “LEU, brain concentration” value [2, 5] of the same substance?
The value was 0.04 ± 0.01 nmol/g w.w.

What about the “ORN, brain concentration” value [2, 5] of the same substance?
Its value is 0.02 ± 0.01 nmol/g w.w.

And the “VAL, brain concentration” value [2, 5]?
The value was 0.06 ± 0.03 nmol/g w.w.

What about the “isoleucine (ILE)” value ([2]; 2 days post sTBI) of the same substance?
Its value is “restored”.

What about the “osmolyte and aromatic free amino acids” value ([2]; 2 days post sTBI) of the same substance?
Its value is “No remarkable effects”.

What about the “free amino acids involved in NO generation (ARG, CITR)” value ([2]; 2 days post sTBI, 15 mg/kg b.w.) of the same substance?
Its value is “particularly effective”.

And the “free amino acids involved in neurotransmission” value ([2]; 2 days post sTBI, 5 or 15 mg/kg b.w.)?
The value was “partly effective”.

What about the methionine ([2]; 2 days post sTBI, any dose tested) of the same substance?
Its methionine is “Restoration”.

What about the TAU concentrations ([2]; 7 days post sTBI) of the same substance?
The TAU concentrations was “normalized”.

And the aromatic amino acids ([2]; 7 days post sTBI)?
Its aromatic amino acids is “caused the increase”.

And the GLU ([2]; 7 days post sTBI, 15 mg/kg b.w. single or repeat)?
The GLU was “normalization”.

And the “free amino acids involved in NO generation (ARG, CITR)” value ([2]; 7 days post sTBI, 5 or 15 mg/kg b.w. (single and repeat))?
The value was “particularly effective”.

And the “L-Cystathionine (L-Cystat)” value ([2]; 7 days post sTBI, highest dose)?
Its value is “significant increase”.

And the MET ([2]; 7 days post sTBI, highest dose, single or repeat)?
Its MET is “Increase”.

What about the “ALA concentration in deproteinized brain homogenates” value [2, 6] of the same substance?
The value was 0.47 ± 0.05 nmol/g w.w.

What about the “ASN concentration in deproteinized brain homogenates” value (“ASN concentration” below) [2, 6] of the same substance?
Its value is 0.10 ± 0.02 nmol/g w.w.

What about the “CITR concentration in deproteinized brain homogenates” value (shortened to “CITR concentration”) [2, 6] of the same substance?
Its value is 0.03 ± 0.01 nmol/g w.w.

And the GLN concentration in deproteinized brain homogenates [2, 6]?
Its GLN concentration in deproteinized brain homogenates is 3.88 ± 0.4 µmol/g w.w.

And the “HYS concentration in deproteinized brain homogenates” value (from here on “HYS concentration”) [2, 6]?
The value was 0.06 ± 0.01 nmol/g w.w.

And the “ILE concentration in deproteinized brain homogenates” value [2, 6]?
The value was 0.03 ± 0.01 nmoL/g w.w.

What about the “LEU concentration in deproteinized brain homogenates” value [2, 6] of the same substance?
The value was 0.04 ± 0.01 nmoL/g w.w.

And the “LYS concentration in deproteinized brain homogenates” value (“LYS concentration” below) [2, 6]?
The value was 0.23 ± 0.07 nmoL/g w.w.

And the “MET concentration in deproteinized brain homogenates” value (shortened to “MET concentration”) [2, 6]?
Its value is 0.05 ± 0.01 nmol/g w.w.

And the “THR concentration in deproteinized brain homogenates” value (“THR concentration” for short) [2, 6]?
The value was 0.77 ± 0.14 nmol/g w.w.

What about the “TYR concentration in deproteinized brain homogenates” value (“TYR concentration” below) [2, 6] of the same substance?
The value was 0.14 ± 0.02 nmol/g w.w.

And the “VAL concentration in deproteinized brain homogenates” value [2, 6]?
Its value is 0.07 ± 0.01 nmoL/g w.w.

What about the “ASN concentration” value [2, 7] of the same substance?
The value was 0.10 ± 0.02 nmol/g w.w.

What about the “CITR concentration” value [2, 7] of the same substance?
Its value is 0.03 ± 0.01 nmol/g w.w.

And the GLN concentration in deproteinized brain homogenates [2, 7]?
Its GLN concentration in deproteinized brain homogenates is 4.1 ± 0.42 µmol/g w.w.

What about the “HYS concentration” value [2, 7] of the same substance?
The value was 0.06 ± 0.01 nmol/g w.w.

And the “LYS concentration” value [2, 7]?
The value was 0.19 ± 0.06 nmoL/g w.w.

And the “MET concentration” value [2, 7]?
Its value is 0.03 ± 0.01 nmol/g w.w.

What about the “TAU concentration in deproteinized brain homogenates” value [2, 7] of the same substance?
Its value is 4.02 ± 0.51 nmol/g w.w.

And the “THR concentration” value [2, 7]?
The value was 0.71 ± 0.12 nmol/g w.w.

What about the “TYR concentration” value [2, 7] of the same substance?
Its value is 0.13 ± 0.02 nmol/g w.w.

What about the “ASN concentration” value [2, 8] of the same substance?
Its value is 0.10 ± 0.02 nmol/g w.w.

What about the “CITR concentration” value [2, 8] of the same substance?
The value was 0.03 ± 0.01 nmol/g w.w.

What about the GLN concentration in deproteinized brain homogenates [2, 8] of the same substance?
The GLN concentration in deproteinized brain homogenates was 3.86 ± 0.4 µmol/g w.w.

And the “GLY concentration in deproteinized brain homogenates” value [2, 8]?
Its value is 0.88 ± 0.15 nmol/g w.w.

And the “HYS concentration” value [2, 8]?
The value was 0.06 ± 0.01 nmol/g w.w.

What about the “LYS concentration” value [2, 8] of the same substance?
Its value is 0.21 ± 0.04 nmoL/g w.w.

And the “MET concentration” value [2, 8]?
Its value is 0.04 ± 0.01 nmol/g w.w.

What about the “THR concentration” value [2, 8] of the same substance?
The value was 0.71 ± 0.15 nmol/g w.w.

And the “TRP concentration in deproteinized brain homogenates” value [2, 8]?
Its value is 0.02 ± 0.01 nmol/g w.w.

What about the “TYR concentration” value [2, 8] of the same substance?
The value was 0.13 ± 0.02 nmol/g w.w.

What about the “ASN concentration” value [2, 9] of the same substance?
The value was 0.10 ± 0.02 nmol/g w.w.

And the “CITR concentration” value [2, 9]?
Its value is 0.03 ± 0.01 nmol/g w.w.

And the GLN concentration in deproteinized brain homogenates [2, 9]?
Its GLN concentration in deproteinized brain homogenates is 3.73 ± 0.38 µmol/g w.w.

What about the “HYS concentration” value [2, 9] of the same substance?
The value was 0.06 ± 0.01 nmol/g w.w.

And the “LYS concentration” value [2, 9]?
Its value is 0.21 ±0.05 nmoL/g w.w.

What about the “MET concentration” value [2, 9] of the same substance?
Its value is 0.04 ± 0.01 nmol/g w.w.

And the “THR concentration” value [2, 9]?
Its value is 0.72 ± 0.14 nmol/g w.w.

What about the “TYR concentration” value [2, 9] of the same substance?
The value was 0.14 ± 0.02 nmol/g w.w.
